The assay concerns endothelial monolayer of HRECs. The assay is described as follows: Analysis of cell permeability (FITC-dextran, Transwell). It counts as cell-based, human. The note with it: HREC monolayer, 10 ng/mL VEGF 90 min with 20 μM midazolam, 5 μM BAPTA-AM, 1 mM NAC, 0.5 μM Trolox, 50 μM cystamine or 20 μM MDC; 40 kDa FITC-dextran 60 min (FIG. 7). The procedure: The HRECs were cultured (e.g. about 5 days) until the cell confluence thereof reached an appropriate level on gelatin-coated 0.4 μm polycarbonate membranes of Transwell Permeable Supports (Costar, Corning, N.Y.), followed by the respective treatments below and culture for 30 min. Here, treatment with 10 ng/mL VEGF was performed for 90 min. Thereafter, the HRECs were treated with 1 mg/mL 40 kDa FITC-dextran (Sigma-Aldrich), incubated for 60 min, after which the amount of FITC-dextran that was diffused into the lower chamber through the endothelial monolayer of HERCs was measured using a microplate spectrofluorometer (Molecular Devices, Sunnyvale, Calif.).

Regarding `Cc1ncc2n1-c1ccc(Cl)cc1C(c1ccccc1F)=NC2` [midazolam], the “FITC-dextran diffused into lower chamber (cell permeability) / adherens junction disruption due to VEGF” value was “prevented the adherens junction disruption due to VEGF and thus FITC-dextran was not diffused”.
